For assay [1], the target named is T1, hVEGF-A (8-109) (Homo sapiens, UniProt P15692).
T1 sequence (P15692 34-135 isoform P15692-4): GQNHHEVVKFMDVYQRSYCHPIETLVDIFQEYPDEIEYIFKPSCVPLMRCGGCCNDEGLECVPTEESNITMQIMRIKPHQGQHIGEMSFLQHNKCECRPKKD
Nature of the assay: SPR binding assay (BIACORE 3000, 37° C.). The protocol:
Depending on the format of the assay either a streptavidin sensor (SA) or a dextran-coated (CM5) sensor was utilized as described below.
For use with the SA sensor, VEGF-A was first biotinylated (no more than 2 biotin/VEGF-A) by incubating the protein with EZ-link NHS-PEG4-Biotin (Pierce) in a 1:1.5 molar ratio respectively, in PBS for 2 hours on ice. Reaction was then quenched by addition of 10 molar excess of Glycine pH 8.0 and the sample was buffer exchanged into PBS using an Amicon 0.5 mL 3000 MWCO ultra-centrifugal filters (EMD Millipore). The biotinylation state of the protein was verified by LC-MS analysis. Biotinylated VEGF-A was then captured on the surface until a resonance unit (RU) signal of about ˜400. For immobilization of VEGF-A on CM5 sensor, the surface was first activated with a mixture of N-ethyl-N′-(3-dimethylaminopropyl)carbodiimide hydrochloride and N-hydroxysuccinimide (EDC/NHS) according to the supplier instructions. VEGF-A was then diluted into coupling buffer (0.1 M Acetate Buffer, pH 5.0) and injected until the signal reached about ˜400 RU followed by a wash with 1 M ethanolamine pH 8.0 to quench remaining activated sites.
Following the capture step, a series of the peptide concentrations were prepared in HBS-EP buffer with matching DMSO concentrations to 0.1% and injected at a flow rate of […]. The resulting sensorgrams were then analyzed using a 1:1 binding model to obtain kinetic data and affinities using Scrubber 2.0 (BioLogic Software).
(In general: Surface plasmon resonance follows binding to a sensor surface in real time, without labels.)

Assay [2] concerns the target T2, hVEGF(8-109) (Homo sapiens, UniProt P15692).
T2 construct: hVEGF(8-109) or BSA were coated on 384-well MAXISORP™ immunoplates
T2 sequence (P15692 214-315): T1 sequence (P15692 34-135 isoform P15692-4)
Nature of the assay: Spot phage ELISA. In kind it is binding. The procedure, abridged:
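Clones counted positive when hVEGF(8-109) signal exceeded BSA background by over 3-fold, per spot ELISA using anti-M13-HRP/TMB detection. Phage came from overnight 37° C. cultures of individual clones picked after four binding rounds, supernatant diluted 1:3.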
On the technique in general: ELISA stands for enzyme-linked immunosorbent assay.

Setting [3] is: loop 2 variants based on VEGF_CKP9.63 framework, Table 27.

Positions of bridges follow the written chain, without caps; N, C: chain ends. Residues, ends and D or L forms follow the SMILES beside them.

As to `CSCC[C@@H]1NC(=O)[C@H](CC(=O)O)NC(=O)[C@H](CCCNC(=N)N)NC(=O)CNC(=O)[C@@H]2CSSC[C@H](NC(=O)[C@H](CC(=O)O)NC1=O)C(=O)N[C@@H](CC(C)C)C(=O)N[C@@H](C)C(=O)NCC(=O)N[C@H](C(=O)N[C@H](C(=O)N[C@H]1CSSC[C@@H](C(=O)NCC(=O)O)NC(=O)[C@H](CO)NC(=O)[C@H](CC(N)=O)NC(=O)[C@H](Cc3ccc(O)cc3)NC(=O)[C@H](Cc3c[nH]c4ccccc34)NC(=O)[C@H](Cc3c[nH]cn3)NC1=O)C(C)C)CSSC[C@H](NC(=O)CN)C(=O)N[C@@H](CC(=O)O)C(=O)N[C@@H](C(C)C)C(=O)N[C@@H](CCSC)C(=O)N[C@@H](CCC(N)=O)C(=O)N1CCC[C@H]1C(=O)N[C@@H](Cc1ccc(O)cc1)C(=O)N[C@@H](Cc1c[nH]c3ccccc13)C(=O)NCC(=O)N2` [VEGF_CKP9.63.27] (H-GCDVMQPYWGCGRDMDCLAGCVCHWYNSCG-OH; disulfide 2-21, 11-17, 23-29 (inferred); N-terminus and C-terminus assumed), the kd in assay [1] (hVEGF-A (8-109), Table 29) stood at 0.15. For the same molecule, the “S/N (signal to noise ratio as compared to BSA control)” value in assay [2] (Table 27) stood at 26.0. Moreover, in assay [2] (setting [3]), the ELISA came to 2.1.

For the molecule `CSCC[C@@H]1NC(=O)[C@H](CCC(=O)O)NC(=O)[C@@H]2CSSC[C@H](NC(=O)[C@H](CC(=O)O)NC(=O)[C@H](Cc3ccccc3)NC(=O)[C@H](CC(=O)O)NC1=O)C(=O)N[C@@H](CC(C)C)C(=O)N[C@@H](C)C(=O)NCC(=O)N[C@H](C(=O)N[C@H](C(=O)N[C@H]1CSSC[C@@H](C(=O)NCC(=O)O)NC(=O)[C@H](CO)NC(=O)[C@H](CC(N)=O)NC(=O)[C@H](Cc3ccc(O)cc3)NC(=O)[C@H](Cc3c[nH]c4ccccc34)NC(=O)[C@H](Cc3c[nH]cn3)NC1=O)C(C)C)CSSC[C@H](NC(=O)CN)C(=O)N[C@@H](CC(=O)O)C(=O)N[C@@H](C(C)C)C(=O)N[C@@H](CCSC)C(=O)N[C@@H](CCC(N)=O)C(=O)N1CCC[C@H]1C(=O)N[C@@H](Cc1ccc(O)cc1)C(=O)N[C@@H](Cc1c[nH]c3ccccc13)C(=O)NCC(=O)N2` [VEGF_CKP9.63.44] (H-GCDVMQPYWGCEMDFDCLAGCVCHWYNSCG-OH; disulfide 2-21, 11-17, 23-29 (inferred); N-terminus and C-terminus assumed), the kd in assay [1] (hVEGF-A (8-109), Table 29) came to 0.11. Also, the “S/N (signal to noise ratio as compared to BSA control)” value in assay [2] (Table 27) came to 19.5. Further, the ELISA in assay [2] (setting [3]) is on record as 1.7.

Take `CSCC[C@@H]1NC(=O)[C@H](C(C)C)NC(=O)[C@H](CC(=O)O)NC(=O)[C@@H](NC(=O)CN)CSSC[C@@H](C(=O)N[C@H](C(=O)N[C@H]2CSSC[C@@H](C(=O)NCC(=O)O)NC(=O)[C@H](CO)NC(=O)[C@H](CC(N)=O)NC(=O)[C@H](Cc3ccc(O)cc3)NC(=O)[C@H](Cc3c[nH]c4ccccc34)NC(=O)[C@H](Cc3c[nH]cn3)NC2=O)C(C)C)NC(=O)CNC(=O)[C@H](C)NC(=O)[C@H](CC(C)C)NC(=O)[C@@H]2CSSC[C@H](NC(=O)CNC(=O)[C@H](Cc3c[nH]c4ccccc34)NC(=O)[C@H](Cc3ccc(O)cc3)NC(=O)[C@@H]3CCCN3C(=O)[C@H](CCC(N)=O)NC1=O)C(=O)NCC(=O)N[C@@H](CCC(=O)O)C(=O)N[C@@H](CO)C(=O)N[C@@H](CC(C)C)C(=O)N[C@@H](CO)C(=O)N2` [VEGF_CKP9.63.69] (H-GCDVMQPYWGCGESLSCLAGCVCHWYNSCG-OH; disulfide 2-21, 11-17, 23-29 (inferred); N-terminus and C-terminus assumed): the kd in assay [1] (hVEGF-A (8-109), Table 29) is 0.20. Also, in assay [2] (Table 27), the “S/N (signal to noise ratio as compared to BSA control)” value is 23.7. The molecule further yielded an ELISA in assay [2] (setting [3]) of 2.9.

The molecule `CSCC[C@@H]1NC(=O)[C@H](CC(C)C)NC(=O)[C@H](CCC(N)=O)NC(=O)[C@@H](NC(=O)CN)CSSC[C@@H](C(=O)N[C@H](C(=O)N[C@H]2CSSC[C@@H](C(=O)NCC(=O)O)NC(=O)[C@H](CO)NC(=O)[C@H](CCC(N)=O)NC(=O)[C@H](Cc3ccc(O)cc3)NC(=O)[C@H](Cc3c[nH]c4ccccc34)NC(=O)[C@H](Cc3c[nH]cn3)NC2=O)C(C)C)NC(=O)CNC(=O)[C@H](C)NC(=O)[C@H](CC(C)C)NC(=O)[C@@H]2CSSC[C@H](NC(=O)CNC(=O)[C@H](Cc3c[nH]c4ccccc34)NC(=O)[C@H](Cc3ccccc3)NC(=O)[C@@H]3CCCN3C(=O)[C@H](CCC(N)=O)NC1=O)C(=O)N[C@@H](CCCCN)C(=O)N[C@@H](CCC(N)=O)C(=O)N[C@@H](CC(=O)O)C(=O)N[C@@H](CO)C(=O)N[C@@H](CC(=O)O)C(=O)N2` [VEGF_CKP9] (H-GCQLMQPFWGCKQDSDCLAGCVCHWYQSCG-OH; disulfide 2-21, 11-17, 23-29 (inferred); N-terminus and C-terminus assumed) displayed a kd in assay [1] (Table 37, surface plasmon resonance, VEGF-A) of 40. Moreover, the “S/N (signal to noise ratio as compared to BSA control)” value is given as 36.0 in assay [2] (Table 19), 7.4 in assay [2] (Table 22), 11.6 in assay [2] (Table 23) and 7.4 in assay [2] (Table 24). In addition, the ELISA in assay [2] (VEGF_CKP9 Loop1/Loop5 affinity-matured variants, Table 24) worked out at 0.4; in assay [2] (VEGF_CKP9 Loop1 affinity-matured variants, Table 22), 0.4; in assay [2] (VEGF_CKP9 Loop5 affinity-matured variants, Table 23), 0.9; in assay [2] (spot phage ELISA signal, EETI-II-based binders against hVEGF-A, Table 19), 3.3.

The values above are taken from patent US11155586B2, “Cystine knot scaffold platform” (Genentech, Inc., priority 2015, dated 2021).
